Patent US20260201008A1, “SECRETIN-DERIVED GLP1R SELECTIVE AGONISTS” (GUBRA A/S, priority 2023, published 2026)
Read-outs that look alike come from different tables or passages of the source. Numbered stars: 1 amine (or outer) side, 2 acyl side, 3 side chain; on linkers, the order of the positions; unused ones are H or OH. Square brackets hold non-standard residues; d marks the D form. Side chains are listed from the residue outwards. Peptide text beside a SMILES is read from it. * marks the point of attachment. C20 diacid = O=C(O)CCCCCCCCCCCCCCCCCCC(=O)*; γGlu = O=C(O)[C@H](CCC(=O)[*:2])N[*:1]; AEEA = NCCOCCOCC(=O)O; Aib = CC(C)(N)C(=O)O

Assays:
GLP1R = GLP1R (Homo sapiens, UniProt P43220); experiment: hGLP1R potency, cAMP accumulation in CHO-K1 cells stably overexpressing hGLP1R; format: cell-based; parameters: host or cells: CHO-K1; conditions: for EC50: cAMP accumulation; for SCTR EC50/GLP1R EC50 ratio: cAMP accumulation in CHO-K1 cells
Sequence of GLP1R (P43220 24-463): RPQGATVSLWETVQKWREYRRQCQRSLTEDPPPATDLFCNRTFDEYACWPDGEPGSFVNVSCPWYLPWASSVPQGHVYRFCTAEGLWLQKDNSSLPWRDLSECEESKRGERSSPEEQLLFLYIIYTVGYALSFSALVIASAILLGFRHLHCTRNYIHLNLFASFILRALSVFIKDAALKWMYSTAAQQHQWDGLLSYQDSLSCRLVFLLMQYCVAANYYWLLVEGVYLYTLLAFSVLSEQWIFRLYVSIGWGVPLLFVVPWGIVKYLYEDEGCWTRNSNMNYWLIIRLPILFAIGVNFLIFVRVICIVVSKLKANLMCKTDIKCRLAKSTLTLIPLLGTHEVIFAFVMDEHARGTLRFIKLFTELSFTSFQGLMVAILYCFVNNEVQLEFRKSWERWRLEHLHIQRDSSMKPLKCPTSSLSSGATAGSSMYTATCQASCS
In short: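 Thawed cells go straight into buffer containing 0.5 mM IBMX and 0.05% casein, get graded compound doses for 30 min at room temperature, and are then assayed for accumulated cAMP by time-resolved FRET. Human GLP-1(7-36) serves as positive control; EC50 is derived by nonlinear regression.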

SCTR = SCTR (Homo sapiens, UniProt P47872); experiment: hSCTR potency, cAMP accumulation in CHO-K1 cells stably overexpressing hSCTR; format: cell-based; parameters: alternatively Euroscreen ES-712-AF; FAST-0161L; host or cells: CHO-K1; conditions: cAMP accumulation
Sequence of SCTR (P47872 23-440): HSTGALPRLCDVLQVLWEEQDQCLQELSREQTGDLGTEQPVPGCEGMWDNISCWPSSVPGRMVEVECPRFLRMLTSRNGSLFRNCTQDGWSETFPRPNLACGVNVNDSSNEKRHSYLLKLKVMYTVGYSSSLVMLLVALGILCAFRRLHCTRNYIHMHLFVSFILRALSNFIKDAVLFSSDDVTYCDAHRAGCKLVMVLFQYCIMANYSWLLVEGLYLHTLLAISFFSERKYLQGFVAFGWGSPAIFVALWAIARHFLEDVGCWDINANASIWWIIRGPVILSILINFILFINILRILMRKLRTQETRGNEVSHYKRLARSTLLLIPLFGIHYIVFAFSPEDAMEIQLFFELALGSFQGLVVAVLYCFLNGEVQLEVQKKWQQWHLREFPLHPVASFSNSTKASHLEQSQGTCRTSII
In short: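 Read-out is TR-FRET cAMP detection, recorded one hour after reagent addition, in CHO-K1 cells stably overexpressing hSCTR. Cells in DPBS containing 0.05% casein and 0.5 mM IBMX are exposed to graded peptide doses for 30 min at room temperature, with human secretin as reference agonist.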

[1] = Turbidity of crude library peptides (absorbance at 600 nm); format: physicochemical; conditions: Physical stability of peptides
In short: (§1)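 Crude peptides at 267 μM in 50 mM sodium acetate pH 4.0 or 50 mM sodium phosphate pH 7.0, pre-incubated 1-2 h at room temperature, then 4 μM final ThT added. Turbidity read first as A600. ThT fluorescence (ex 450/em 480 nm) read every 10 min for 72 h at 40° C, with 5 min shaking before each read; fibril formation = average emission.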

[2] = Fibril formation of crude library peptides (Thioflavin T); format: physicochemical; parameters: key: average ThT fluorescence emission at 480 nm (ex 450 nm), raw units; conditions: Physical stability of peptides
In short: as §1

[3] = CHO-K1 cells overexpressing hGLP1R, read-out: hGLP1R pEC50 (converted)
[4] = selectivity for hGLP1R over hSCTR
[5] = CHO-K1 cells overexpressing hSCTR, read-out: hSCTR pEC50 (converted)
[6] = CHO-K1 cells stably overexpressing hGLP1R, read-out: hGLP1R potency (pEC50) (converted)
[7] = selectivity ratio, hSCTR vs hGLP1R
[8] = CHO-K1 cells stably overexpressing hSCTR, read-out: hSCTR potency (pEC50) (converted)

EC50 (GLP1R; [3]) [nM]	SCTR EC50/GLP1R EC50 ratio (GLP1R; [4])	EC50 (SCTR; [5]) [nM]	Turbidity (pH 7) [1]	Fibril formation [2]	EC50 (GLP1R; [6]) [nM]	SCTR EC50/GLP1R EC50 ratio (GLP1R; [7])	EC50 (SCTR; [8]) [nM]	SMILES
–	–	–	1.04	48618	0.0126	478	6.31	CC[C@H](C)[C@H](NC(=O)[C@H](Cc1ccccc1)NC(=O)[C@H](CCCNC(=N)N)NC(=O)[C@H](CCC(N)=O)NC(=O)[C@H](CC(C)C)NC(=O)[C@H](C)NC(=O)[C@H](C)NC(=O)CNC(=O)[C@H](CCC(=O)O)NC(=O)[C@H](CC(C)C)NC(=O)[C@H](CC(C)C)NC(=O)[C@H](CCCNC(=N)N)NC(=O)[C@H](CO)NC(=O)[C@H](Cc1c[nH]c2ccccc12)NC(=O)[C@H](CC(=O)O)NC(=O)[C@H](CO)NC(=O)[C@@H](NC(=O)[C@H](Cc1ccccc1)NC(=O)[C@@H](NC(=O)CNC(=O)[C@H](CCC(=O)O)NC(=O)C(C)(C)NC(=O)[C@@H](N)Cc1c[nH]cn1)[C@@H](C)O)[C@@H](C)O)C(=O)N[C@@H](CCC(N)=O)C(=O)N[C@@H](Cc1c[nH]c2ccccc12)C(=O)N[C@@H](CC(C)C)C(=O)N[C@H](C(N)=O)C(C)C [compound 186] (H-H[Aib]EGTFTSDWSRLLEGAALQRFIQWLV-NH2)
–	–	–	0.62	13388	0.0398	1437	50.1	CC[C@H](C)[C@H](NC(=O)[C@H](Cc1ccccc1)NC(=O)[C@H](CCCNC(=N)N)NC(=O)[C@H](CCC(N)=O)NC(=O)[C@H](CC(C)C)NC(=O)[C@H](C)NC(=O)[C@H](C)NC(=O)CNC(=O)[C@H](CCC(=O)O)NC(=O)[C@H](CC(C)C)NC(=O)[C@H](CC(C)C)NC(=O)CNC(=O)[C@H](CO)NC(=O)[C@H](Cc1c[nH]c2ccccc12)NC(=O)[C@H](CC(=O)O)NC(=O)[C@H](CO)NC(=O)[C@@H](NC(=O)[C@H](Cc1ccccc1)NC(=O)[C@@H](NC(=O)CNC(=O)[C@H](CCC(=O)O)NC(=O)C(C)(C)NC(=O)[C@@H](N)Cc1c[nH]cn1)[C@@H](C)O)[C@@H](C)O)C(=O)N[C@@H](CCC(N)=O)C(=O)N[C@@H](Cc1c[nH]c2ccccc12)C(=O)N[C@@H](CC(C)C)C(=O)N[C@H](C(N)=O)C(C)C [compound 187] (H-H[Aib]EGTFTSDWSGLLEGAALQRFIQWLV-NH2)
–	–	–	0.85	260000	0.0794	468	31.6	CC[C@H](C)[C@H](NC(=O)[C@H](Cc1ccccc1)NC(=O)[C@H](CCCNC(=N)N)NC(=O)[C@H](CCC(N)=O)NC(=O)[C@H](CC(C)C)NC(=O)[C@H](C)NC(=O)[C@H](C)NC(=O)CNC(=O)[C@H](CCC(=O)O)NC(=O)[C@H](CC(C)C)NC(=O)[C@H](CC(C)C)NC(=O)[C@@H](NC(=O)[C@H](CO)NC(=O)[C@H](Cc1c[nH]c2ccccc12)NC(=O)[C@H](CC(=O)O)NC(=O)[C@H](CO)NC(=O)[C@@H](NC(=O)[C@H](Cc1ccccc1)NC(=O)[C@@H](NC(=O)CNC(=O)[C@H](CCC(=O)O)NC(=O)C(C)(C)NC(=O)[C@@H](N)Cc1c[nH]cn1)[C@@H](C)O)[C@@H](C)O)C(C)C)C(=O)N[C@@H](CCC(N)=O)C(=O)N[C@@H](Cc1c[nH]c2ccccc12)C(=O)N[C@@H](CC(C)C)C(=O)N[C@H](C(N)=O)C(C)C [compound 188] (H-H[Aib]EGTFTSDWSVLLEGAALQRFIQWLV-NH2)

The remaining lines, values behind:

SMILES	EC50 (GLP1R; [3]) [nM]	SCTR EC50/GLP1R EC50 ratio (GLP1R; [4])	EC50 (SCTR; [5]) [nM]	Turbidity (pH 7) [1]	Fibril formation [2]	EC50 (GLP1R; [6]) [nM]	SCTR EC50/GLP1R EC50 ratio (GLP1R; [7])	EC50 (SCTR; [8]) [nM]
CC[C@H](C)[C@H](NC(=O)[C@H](Cc1ccccc1)NC(=O)[C@H](CCCNC(=N)N)NC(=O)[C@H](CCC(N)=O)NC(=O)[C@H](CC(C)C)NC(=O)[C@H](C)NC(=O)[C@H](C)NC(=O)CNC(=O)[C@H](CCC(=O)O)NC(=O)[C@H](CC(C)C)NC(=O)[C@H](CC(C)C)NC(=O)CNC(=O)[C@H](CO)NC(=O)[C@@H](NC(=O)[C@H](CC(=O)O)NC(=O)[C@H](CO)NC(=O)[C@@H](NC(=O)[C@H](Cc1ccccc1)NC(=O)[C@@H](NC(=O)CNC(=O)[C@H](CCC(=O)O)NC(=O)C(C)(C)NC(=O)[C@@H](N)Cc1c[nH]cn1)[C@@H](C)O)[C@@H](C)O)C(C)C)C(=O)N[C@@H](CCC(N)=O)C(=O)N[C@@H](Cc1c[nH]c2ccccc12)C(=O)N[C@@H](CC(C)C)C(=O)N[C@H](C(N)=O)C(C)C [compound 182] (H-H[Aib]EGTFTSDVSGLLEGAALQRFIQWLV-NH2)	0.0501	2754	158	0.40	253106	–	–	–
CC[C@H](C)[C@H](NC(=O)[C@H](Cc1ccccc1)NC(=O)[C@H](CCCNC(=N)N)NC(=O)[C@H](CCC(N)=O)NC(=O)[C@H](CC(C)C)NC(=O)[C@H](C)NC(=O)[C@H](C)NC(=O)CNC(=O)[C@H](CCC(=O)O)NC(=O)[C@H](CC(C)C)NC(=O)[C@H](CC(C)C)NC(=O)[C@H](Cc1c[nH]c2ccccc12)NC(=O)[C@H](CO)NC(=O)[C@@H](NC(=O)[C@H](CC(=O)O)NC(=O)[C@H](CO)NC(=O)[C@@H](NC(=O)[C@H](Cc1ccccc1)NC(=O)[C@@H](NC(=O)CNC(=O)[C@H](CCC(=O)O)NC(=O)C(C)(C)NC(=O)[C@@H](N)Cc1c[nH]cn1)[C@@H](C)O)[C@@H](C)O)C(C)C)C(=O)N[C@@H](CCC(N)=O)C(=O)N[C@@H](Cc1c[nH]c2ccccc12)C(=O)N[C@@H](CC(C)C)C(=O)N[C@H](C(N)=O)C(C)C [compound 183] (H-H[Aib]EGTFTSDVSWLLEGAALQRFIQWLV-NH2)	0.0501	3127	158	0.67	172171	–	–	–
CC[C@H](C)[C@H](NC(=O)[C@H](Cc1ccccc1)NC(=O)[C@H](CCCNC(=N)N)NC(=O)[C@H](CCC(N)=O)NC(=O)[C@H](CC(C)C)NC(=O)[C@H](C)NC(=O)[C@H](C)NC(=O)CNC(=O)[C@H](CCC(=O)O)NC(=O)[C@H](CC(C)C)NC(=O)[C@H](CC(C)C)NC(=O)[C@@H](NC(=O)[C@H](CO)NC(=O)[C@@H](NC(=O)[C@H](CC(=O)O)NC(=O)[C@H](CO)NC(=O)[C@@H](NC(=O)[C@H](Cc1ccccc1)NC(=O)[C@@H](NC(=O)CNC(=O)[C@H](CCC(=O)O)NC(=O)C(C)(C)NC(=O)[C@@H](N)Cc1c[nH]cn1)[C@@H](C)O)[C@@H](C)O)C(C)C)C(C)C)C(=O)N[C@@H](CCC(N)=O)C(=O)N[C@@H](Cc1c[nH]c2ccccc12)C(=O)N[C@@H](CC(C)C)C(=O)N[C@H](C(N)=O)C(C)C [compound 184] (H-H[Aib]EGTFTSDVSVLLEGAALQRFIQWLV-NH2)	0.0251	10252	251	0.43	260000	–	–	–
CC(C)C[C@H](NC(=O)[C@H](Cc1ccc(O)cc1)NC(=O)[C@H](CO)NC(=O)[C@H](Cc1c[nH]c2ccccc12)NC(=O)[C@H](CC(=O)O)NC(=O)[C@H](CO)NC(=O)[C@@H](NC(=O)[C@H](Cc1ccccc1)NC(=O)[C@@H](NC(=O)CNC(=O)[C@H](CCC(=O)O)NC(=O)C(C)(C)NC(=O)[C@@H](N)Cc1c[nH]cn1)[C@@H](C)O)[C@@H](C)O)C(=O)N[C@@H](CCCCNC(=O)COCCOCCNC(=O)COCCOCCNC(=O)CC[C@H](NC(=O)CCCCCCCCCCCCCCCCCCC(=O)O)C(=O)O)C(=O)N[C@@H](CCC(=O)O)C(=O)N[C@@H](CCC(=O)O)C(=O)N[C@@H](C)C(=O)NC(C)(C)C(=O)N[C@@H](CC(C)C)C(=O)N[C@@H](CCC(N)=O)C(=O)N[C@@H](CCCNC(=N)N)C(=O)N[C@@H](Cc1ccccc1)C(=O)N[C@@H](CC(C)C)C(=O)N[C@@H](CCC(=O)O)C(=O)N[C@@H](Cc1c[nH]cn1)C(=O)N[C@@H](CC(C)C)C(=O)N[C@H](C(N)=O)C(C)C [compound 185] (H-H[Aib]EGTFTSDWSYLK([AEEA-AEEA-γGlu-C20 diacid])EEA[Aib]LQRFLEHLV-NH2)	–	–	–	0.08	4198	0.00631	7444	50.1
